# Where two headings read alike, the source gives them in different places.
# Columns and labels:
# [1] = Acute oral toxicity study in rats; details: rat, in vivo, po
# Experimental: (§1) The intended clinical route of administration is oral, thus oral toxicity studies were done in mice, rats and dogs. […] Effects of repeat oral dosing were assessed in rats and dogs in preliminary 7-day toxicity studies followed by a 14-day GLP1 toxicity studies.
# [2] = test system: rats; test: Acute oral toxicity study in rats; details: rats; single oral doses 500, 1000 or 2000 mg/kg
# Experimental: as §1
# [3] = in vivo; set-up: species or system dogs; details: both sexes, dog
# Experimental: (§2) One dog per gender was dosed orally with the vehicle (0.5% methylcellulose+0.5% Tween80 in water), or 25, 50, or 100 mg/kg/day Compound 1 for 7 consecutive days. The dose volume was 5 mL/kg/day for all dose groups. Plasma samples were collected on Days 1 and 7 for TK analysis and viability, clinical observations, body weights, feed consumption, clinical pathology (termination), organ weights, macroscopic observations, and microscopic pathology were evaluated.
# [4] = test system: dogs; test: in vivo; details: dog
# Experimental: as §2
# [5] = biological target: T1, TP receptor (Rattus norvegicus, UniProt P34978); test: In vitro functional assay of TP receptor function using rat aorta; format: cell-based; details: read-out: IC50 (TP receptor antagonist)
# T1 construct: In an in vitro functional assay of TP receptor function using rat aorta; from tissue; host or cells: rat aorta
# T1 sequence (P34978 1-341): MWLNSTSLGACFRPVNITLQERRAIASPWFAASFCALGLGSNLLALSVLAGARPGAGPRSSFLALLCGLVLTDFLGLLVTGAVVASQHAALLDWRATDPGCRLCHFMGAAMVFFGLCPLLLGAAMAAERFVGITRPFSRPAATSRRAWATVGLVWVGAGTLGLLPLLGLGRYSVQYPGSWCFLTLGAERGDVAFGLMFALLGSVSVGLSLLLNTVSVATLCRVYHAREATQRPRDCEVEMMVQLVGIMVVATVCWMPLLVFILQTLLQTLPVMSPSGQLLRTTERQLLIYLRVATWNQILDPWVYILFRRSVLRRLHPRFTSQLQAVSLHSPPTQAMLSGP
# [6] = biological target: hERG (Homo sapiens, UniProt Q12809); test: hERG electrophysiological techniques; format: cell-based; details: variety of electrophysiological techniques
# [7] = test system: Chinese hamster ovary (CHO) cell; test: Chinese hamster ovary (CHO) chromosome aberration assay; format: cell-based; details: GLP
# Experimental: The potential for genetic toxicology was tested using standard GLP bacterial mutation (Ames), Chinese hamster ovary (CHO) chromosome aberration, and in vivo mouse micronucleus assays: Compound 1 was negative in all tests. […] With the exception of the preliminary 7-day toxicity studies, all studies were performed according to GLP regulations.
# [8] = Tissue distribution in male rats after single oral dose of 75 mg/kg; format: in vivo, male Sprague Dawley rats; details: 75 mg/kg oral; for Kp at 1 h / Kp at 4 hr / Kp at 12 hr / Kp / Kp at 48 hr: po, 75 mg/kg
# Experimental: Following a single oral administration of unlabelled Compound 1 to rats, the highest distribution was to the liver followed by lung, pancreas and brain with tissue-to-plasma ratios of 0.73, 0.19, 0.13 and 0.02, respectively, at one hour following oral administration of 75 mg/kg. Elimination of Compound 1 was nearly complete from all tissues 48 hours after administration (concentrations less than 1 μg/mL). Although the distribution to the lung is low relative to plasma, the concentrations measured in lung at low and moderate doses are predicted to be efficacious.
# [9] = Pharmacokinetics in CD-1 mice; format: in vivo; details: mouse
# Experimental: The pharmacokinetics of Compound 1 were assessed in the same species used in the toxicology studies: CD-1 mice, Sprague Dawley rats and beagle dogs. The pharmacokinetics of Compound 1 were also assessed in cynomolgus monkeys.
# [10] = Solubility (statement); format: physicochemical; details: aqueous medium
# [11] = in vivo; details: rat, po
# Experimental: (§3) Repeat-dose oral toxicity studies of 7- and 14-days duration have been conducted in rats (up to 600 mg/kg/day) and dogs (up to 200 mg/kg/day).
# [12] = test system: dogs; test: 14-day repeat-dose oral toxicity study in dogs
# Experimental: as §3
# [13] = Sprague Dawley, rat, male rats, Brain
# [14] = Sprague Dawley, rat, male rats, Liver
# [15] = Sprague Dawley, rat, male rats, Lung
# [16] = Sprague Dawley, rat, male rats, Pancreas
# [17] = Sprague Dawley, rat, male rats, Plasma
# Sequence of hERG (Q12809 whole entry): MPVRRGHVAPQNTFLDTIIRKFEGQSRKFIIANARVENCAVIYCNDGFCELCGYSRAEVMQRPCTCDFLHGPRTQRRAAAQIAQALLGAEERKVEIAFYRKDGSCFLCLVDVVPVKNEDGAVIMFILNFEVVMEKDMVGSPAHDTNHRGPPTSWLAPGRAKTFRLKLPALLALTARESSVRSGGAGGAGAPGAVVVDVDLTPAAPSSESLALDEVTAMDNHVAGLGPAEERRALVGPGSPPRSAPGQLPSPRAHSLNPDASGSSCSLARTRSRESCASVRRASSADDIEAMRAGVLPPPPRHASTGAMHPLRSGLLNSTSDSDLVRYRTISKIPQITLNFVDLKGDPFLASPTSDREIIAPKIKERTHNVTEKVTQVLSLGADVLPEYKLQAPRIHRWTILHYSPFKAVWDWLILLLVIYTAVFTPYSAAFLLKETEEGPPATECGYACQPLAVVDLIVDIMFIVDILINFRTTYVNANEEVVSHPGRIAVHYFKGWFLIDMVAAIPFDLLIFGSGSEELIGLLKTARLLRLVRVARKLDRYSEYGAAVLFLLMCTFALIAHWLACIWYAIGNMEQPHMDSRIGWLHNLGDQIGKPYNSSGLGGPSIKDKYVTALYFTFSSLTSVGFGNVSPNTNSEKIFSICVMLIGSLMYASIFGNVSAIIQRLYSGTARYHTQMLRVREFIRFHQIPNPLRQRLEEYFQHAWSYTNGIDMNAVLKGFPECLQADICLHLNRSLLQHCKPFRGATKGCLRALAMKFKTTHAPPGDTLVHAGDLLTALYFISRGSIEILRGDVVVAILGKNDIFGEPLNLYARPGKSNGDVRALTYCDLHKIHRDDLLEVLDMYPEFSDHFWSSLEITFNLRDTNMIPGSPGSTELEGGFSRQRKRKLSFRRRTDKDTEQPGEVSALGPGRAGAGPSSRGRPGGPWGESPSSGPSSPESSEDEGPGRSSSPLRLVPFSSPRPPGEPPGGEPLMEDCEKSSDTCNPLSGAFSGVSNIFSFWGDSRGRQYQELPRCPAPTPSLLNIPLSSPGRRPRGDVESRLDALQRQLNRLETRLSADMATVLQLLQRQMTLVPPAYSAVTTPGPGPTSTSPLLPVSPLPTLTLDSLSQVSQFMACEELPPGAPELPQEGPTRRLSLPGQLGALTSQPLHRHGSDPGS
smiles,measurement,setting,value
"Cc1ccc(NC(=O)C2(c3ccc4c(c3)OC(F)(F)O4)CC2)nc1-c1cccc(C(=O)O)c1 [Compound 1, 3-(6-(1-(2,2-difluorobenzo[d][1,3]dioxol-5-yl)cyclopropanecarboxamido)-3-methylpyridin-2-yl)benzoic acid]",MTD at 14 days,[1],> 2000 mg/kg
same,NOAEL at 14 days,[1],> 2000 mg/kg
same,organ weights and gross observations at necropsy,[2],no effects on organ weights and no gross observations
same,NOAEL at 7 days,[3],100 mg/kg/day
same,"food consumption, hematologies, coagulations parameters, ECG measurements",[4],no effects
same,gross lesions and histopathological findings,[4],no test article related gross lesions or histopathological findings
same,body weight loss,[4]; 100 mg/kg/day,0.3 kg
same,IC50,[5],1 to 10 µM
same,IC50,[6],≥ 30 µM
same,clastogenicity (chromosome aberrations),[7],negative
same,Cmax,[8]; [13],957 ng/mL
same,Tmax,[8]; [13],4 h
same,AUC,"[8]; Sprague Dawley, rat, male rats, Brain, footnote a: AUCall",9.3 µg·h/mL
same,concentration at 12 hr,"[8]; Sprague Dawley, rat, male rats, Brain, read-out: Clast",546 ng/mL
same,AUC(0-inf),[8]; [14],885 µg·h/mL
same,Cmax,[8]; [14],38100 ng/mL
same,Tmax,[8]; [14],4 h
same,half-life,[8]; [14],8.06 h
same,concentration at 48 hr,"[8]; Sprague Dawley, rat, male rats, Liver, read-out: Clast",965 ng/mL
same,AUC(0-inf),[8]; [15],187 µg·h/mL
same,Cmax,[8]; [15],9140 ng/mL
same,Tmax,[8]; [15],1 h
same,half-life,[8]; [15],7.79 h
same,concentration at 48 hr,"[8]; Sprague Dawley, rat, male rats, Lung, read-out: Clast",189 ng/mL
same,AUC(0-inf),[8]; [16],132 µg·h/mL
same,Cmax,[8]; [16],6830 ng/mL
same,Tmax,[8]; [16],4 h
same,half-life,[8]; [16],6.87 h
same,concentration at 48 hr,"[8]; Sprague Dawley, rat, male rats, Pancreas, read-out: Clast",86 ng/mL
same,AUC(0-inf),[8]; [17],980 µg·h/mL
same,Cmax,[8]; [17],59100 ng/mL
same,Tmax,[8]; [17],4 h
same,half-life,[8]; [17],6.15 h
same,concentration at 48 hr,"[8]; Sprague Dawley, rat, male rats, Plasma, read-out: Clast",542 ng/mL
same,"Tissue Concentrations, Brain","[8]; male rats, 1 hr",0.93 μg/mL or μg/g
same,"Tissue Concentrations, Liver","[8]; male rats, 1 hr",34.7 μg/mL or μg/g
same,"Tissue Concentrations, Lung","[8]; male rats, 1 hr",9.14 μg/mL or μg/g
same,"Tissue Concentrations, Pancreas","[8]; male rats, 1 hr",6.03 μg/mL or μg/g
same,"Tissue Concentrations, Plasma","[8]; male rats, 1 hr",47.3 μg/mL or μg/g
same,"Tissue Concentrations, Brain","[8]; male rats, 4 hr",0.96 μg/mL or μg/g
same,"Tissue Concentrations, Liver","[8]; male rats, 4 hr",38.1 μg/mL or μg/g
same,"Tissue Concentrations, Lung","[8]; male rats, 4 hr",8.99 μg/mL or μg/g
same,"Tissue Concentrations, Pancreas","[8]; male rats, 4 hr",6.83 μg/mL or μg/g
same,"Tissue Concentrations, Plasma","[8]; male rats, 4 hr",59.1 μg/mL or μg/g
same,"Tissue Concentrations, Brain","[8]; male rats, 12 hr",0.55 μg/mL or μg/g
same,"Tissue Concentrations, Liver","[8]; male rats, 12 hr",26.3 μg/mL or μg/g
same,"Tissue Concentrations, Lung","[8]; male rats, 12 hr",5.17 μg/mL or μg/g
same,"Tissue Concentrations, Pancreas","[8]; male rats, 12 hr",3.65 μg/mL or μg/g
same,"Tissue Concentrations, Plasma","[8]; male rats, 12 hr",24.8 μg/mL or μg/g
same,"Tissue Concentrations, Brain","[8]; male rats, 48 hr",BLQ
same,"Tissue Concentrations, Liver","[8]; male rats, 48 hr",0.97 μg/mL or μg/g
same,"Tissue Concentrations, Lung","[8]; male rats, 48 hr",0.19 μg/mL or μg/g
same,"Tissue Concentrations, Pancreas","[8]; male rats, 48 hr",0.09 μg/mL or μg/g
same,"Tissue Concentrations, Plasma","[8]; male rats, 48 hr",0.54 μg/mL or μg/g
same,tlast,"[8]; male rats, Brain",12 h
same,tlast,"[8]; male rats, Liver",48 h
same,tlast,"[8]; male rats, Lung",48 h
same,tlast,"[8]; male rats, Pancreas",48 h
same,tlast,"[8]; male rats, Plasma",48 h
same,concentration at 48 h,"[8]; male, Sprague Dawley, rat, all tissues (liver, lung, pancreas, brain), rats, 48 hours after administration, read-out: concentrations in all tissues",< 1000 ng/mL
same,Kp at 1 h,"[8]; male, Sprague Dawley, rat, brain, male rats, 1 hr, read-out: Tissue/Plasma Ratio, Brain",0.02
same,Kp at 4 hr,"[8]; male, Sprague Dawley, rat, brain, male rats, 4 hr, read-out: Tissue/Plasma Ratio, Brain",0.02
same,Kp at 12 hr,"[8]; male, Sprague Dawley, rat, brain, male rats, 12 hr, read-out: Tissue/Plasma Ratio, Brain",0.02
same,Kp,"[8]; male, Sprague Dawley, rat, brain, male rats, Brain, read-out: Cmax Ratio (Tissue/Plasma)",0.02
same,Kp,"[8]; male, Sprague Dawley, rat, brain, rats, 1 to 48 hours after administration, read-out: tissue-to-plasma concentration ratios, brain",0.02
same,Kp at 1 h,"[8]; male, Sprague Dawley, rat, liver, male rats, 1 hr, read-out: Tissue/Plasma Ratio, Liver",0.73
same,Kp at 4 hr,"[8]; male, Sprague Dawley, rat, liver, male rats, 4 hr, read-out: Tissue/Plasma Ratio, Liver",0.64
same,Kp at 12 hr,"[8]; male, Sprague Dawley, rat, liver, male rats, 12 hr, read-out: Tissue/Plasma Ratio, Liver",1.06
same,Kp at 48 hr,"[8]; male, Sprague Dawley, rat, liver, male rats, 48 hr, read-out: Tissue/Plasma Ratio, Liver",1.78
same,Kp,"[8]; male, Sprague Dawley, rat, liver, male rats, Liver, read-out: Cmax Ratio (Tissue/Plasma)",0.64
same,Kp,"[8]; male, Sprague Dawley, rat, liver, rats, 1 to 48 hours after administration, read-out: tissue-to-plasma concentration ratios, liver",0.7 to 1.8
same,Kp at 1 h,"[8]; male, Sprague Dawley, rat, lung, male rats, 1 hr, read-out: Tissue/Plasma Ratio, Lung",0.19
same,Kp at 4 hr,"[8]; male, Sprague Dawley, rat, lung, male rats, 4 hr, read-out: Tissue/Plasma Ratio, Lung",0.15
same,Kp at 12 hr,"[8]; male, Sprague Dawley, rat, lung, male rats, 12 hr, read-out: Tissue/Plasma Ratio, Lung",0.21
same,Kp at 48 hr,"[8]; male, Sprague Dawley, rat, lung, male rats, 48 hr, read-out: Tissue/Plasma Ratio, Lung",0.35
same,Kp,"[8]; male, Sprague Dawley, rat, lung, male rats, Lung, read-out: Cmax Ratio (Tissue/Plasma)",0.15
same,Kp,"[8]; male, Sprague Dawley, rat, lung, rats, 1 to 48 hours after administration, read-out: tissue-to-plasma concentration ratios, lung",0.15 to 0.35
same,Kp at 1 h,"[8]; male, Sprague Dawley, rat, pancreas, male rats, 1 hr, read-out: Tissue/Plasma Ratio, Pancreas",0.13
same,Kp at 4 hr,"[8]; male, Sprague Dawley, rat, pancreas, male rats, 4 hr, read-out: Tissue/Plasma Ratio, Pancreas",0.12
same,Kp at 12 hr,"[8]; male, Sprague Dawley, rat, pancreas, male rats, 12 hr, read-out: Tissue/Plasma Ratio, Pancreas",0.15
same,Kp at 48 hr,"[8]; male, Sprague Dawley, rat, pancreas, male rats, 48 hr, read-out: Tissue/Plasma Ratio, Pancreas",0.15
same,Kp,"[8]; male, Sprague Dawley, rat, pancreas, male rats, Pancreas, read-out: Cmax Ratio (Tissue/Plasma)",0.12
same,Kp,"[8]; male, Sprague Dawley, rat, pancreas, rats, 1 to 48 hours after administration, read-out: tissue-to-plasma concentration ratios, pancreas",0.12 to 0.15
same,clearance,[9],very low clearance
same,solubility,[10],low solubility
same,NOAEL at 14 days,[11],600 mg/kg/day
same,projected safety margin range from the dog NOAEL,[12]; assuming efficacious dose in dogs 0.91 mg/kg b.i.d. (Ctrough at EC90),110 ×
same,low prostate:body weight and prostate:brain weight ratios vs. vehicle control group,"[12]; male dogs, 14-day study, all dose levels",52-62%
